Experimental data: patent US9670261B2 (Sanofi, priority 2012, dated 2017)
In brackets after ≈: the same amount, converted by molar mass. *1 amine or outer side, *2 acyl side, *3 side chain or, on linkers, in order; H or OH if unused. Where a SMILES comes first, the peptide text is derived from it. Side-chain parts run from the residue outwards. [ ]: non-standard residue; d: D form. The star is where a group is joined. γGlu = O=C(O)[C@H](CCC(=O)[*:2])N[*:1]; Stearoyl = CCCCCCCCCCCCCCCCCC(=O)*; Palmitoyl = CCCCCCCCCCCCCCCC(=O)*; Aib = CC(C)(N)C(=O)O; GABA = NCCCC(=O)O

Experiments:
[1] = Chemical stability in solution, 7 days at 25° C. (% remaining peptide); details: % remaining peptide after 7 days at 25° C.
Experimental: After that time course, the sample was centrifuged for 20 min at 4000 rpm and the supernatant was analysed with HPLC-UV. For determination of the amount of the remaining peptide, the peak areas of the target compound at t0 and t7 were compared, resulting in “% remaining peptide”, following the equation % remaining peptide=[(peak area peptide t7)×100]/peak area peptide t0.
The chemical stability is expressed as “% remaining peptide”.

[2] = Pharmacokinetic testing in mice, s.c.; details: mouse, sc, 1 mg/kg
Experimental: Mice were dosed 1 mg/kg subcutaneously (s.c.). The mice were sacrified and blood samples were collected after 0.25, 0.5, 1, 2, 4, 8, 16 and 24 hours post application. Plasma samples were analyzed after protein precipitation via liquid chromatography mass spectrometry (LC/MS). PK parameters and half-life were calculated using WinonLin Version 5.2.1 (non-compartment model).

female NMRI-mice [3] = assay: Gastric emptying and intestinal passage in mice; type: in vivo; details: 10 μg/kg s.c., versus vehicle control
Experimental: Female NMRI-mice of a body weight between 20 and 30 g were used. Mice were adapted to housing conditions for at least one week. Mice were overnight fasted, while water remained available all the time. On the study day, mice were weighed, single-caged and allowed access to 500 mg of feed for 30 min, while water was removed. At the end of the […], remaining feed was removed and weighed. Then, the test compound/reference compound or its vehicle in the control group was administered subcutaneously. 60 min later, to allow the compound to reach relevant plasma exposure, a coloured, non-caloric bolus was instilled via gavage into the stomach. After another 30 min, the animals were sacrificed and the stomach and the small intestine prepared. The filled stomach was weighed, emptied, carefully cleaned and dried and reweighed. The stomach content, calculated as weight of filled subtracted by the weight of emptied stomach, indicated the degree of gastric emptying. The small intestine was straightened without force and measured in length. Then the distance from the gastric beginning of the gut to the tip of the farthest traveled intestinal content bolus was measured. The intestinal passage was given as ratio in percent of the latter distance and the total length of the small intestine. […] Statistical analyses were performed with Everstat 6.0 by 1-way-ANOVA, followed by Dunnett's as post-hoc test. Dunnett's Test was applied to compare versus vehicle control. Differences were considered statistically significant at the p<0.05 level.

[4] = test system: female leptin-receptor deficient diabetic db/db mice; assay: Blood glucose and HbA1c in leptin-receptor deficient diabetic db/db mice (method 3); type: in vivo; details: single 100 μg/kg s.c., fed db/db mice
Description: Female BKS.Cg-m+/+Leprdb/J (db/db) and BKS.Cg-m+/+Leprdb/+(lean control) mice were obtained from Charles River Laboratories, Germany, at an age of 9-10 weeks. The animals were housed in groups in a specific pathogen-free barrier facility on a 12-h light/dark cycle with free access to water and rodent-standard chow. After 1 week of acclimatization, blood samples were drawn from the tail without anaesthesia and blood glucose (method: d-glucose hexokinase, hemolysate, AU640 Beckman Coulter) and HbA1c level (method: hemolysate, Cobas6000 c501, Roche Diagnostics, Germany) were determined. […] The volume of administration was 5 mL/kg. The animals had access to water and chow during the experiment, food consumption was determined at all time points of blood sampling. […] Blood sampling was performed by tail incision without anaesthesia. […] At the end of the study, blood samples (tail, no anaesthesia) were analyzed for glucose and HbA1c. […] Statistical analyses were performed with Everstat 6.0 by repeated measures two-way ANOVA and Dunnett's post-hoc analyses. Differences versus vehicle-treated db/db control mice were considered statistically significant at the p<0.05 level. […] At predefined time points, more blood samples were taken to measure blood glucose and generate the blood glucose profile over 24 h. […] Blood glucose and HbA1c were determined before start of treatment and at the end of the study after 4 weeks of treatment. […] Before treatment started, no significant differences in blood glucose levels could be detected between db/db groups, only the lean control animals had significant lower glucose levels. During the 4 weeks of treatment, glucose levels increased in the vehicle-treated db/db control group, indicating a worsening of the diabetic situation.

[5] = Solubility testing in buffer (HPLC-UV)
female NMRI-mice [6] = assay: Automated assessment of 22-hours feed intake in mice; type: in vivo; details: 0.1 mg/kg s.c.
Experimental: Female NMRI-mice of a body weight between 20 and 30 g were used. Mice were adapted to housing conditions for at least one week and for at least one day single-caged in the assessment equipment, when basal data were recorded simultaneously. On the study day, test product was administered subcutaneously close to the lights-off phase (12 h lights off) and assessment of feed consumption was directly started afterwards. Assessment included continued monitoring over 22 hours, while data are processed as mean over every 30 min. Repetition of this procedure over several days was possible. Restriction of assessment to 22 hours was for practical reasons to allow for reweighing of animals, refilling of feed and water and drug administration between procedures. Results could be assessed as cumulated data over 22 hours or differentiated to 30 min intervals. […] Statistical analyses were performed with Everstat 6.0 by two-way ANOVA on repeated measures and Dunnett's post-hoc analyses. Differences were considered statistically significant at the p<0.05 level. […] Lights-off phase (dark phase) started 4 hours later. […].

human GLP-1 receptor = target: T1, human GLP-1 receptor (Homo sapiens, UniProt P43220); assay: cAMP response (HTRF) of HEK-293 cells stably expressing human GLP-1 receptor; type: cell-based; details: Table 7; cAMP formation; read-out: EC50 hGLP-1 R
T1 construct: expressed in transfected cells
T1 sequence (P43220 24-463): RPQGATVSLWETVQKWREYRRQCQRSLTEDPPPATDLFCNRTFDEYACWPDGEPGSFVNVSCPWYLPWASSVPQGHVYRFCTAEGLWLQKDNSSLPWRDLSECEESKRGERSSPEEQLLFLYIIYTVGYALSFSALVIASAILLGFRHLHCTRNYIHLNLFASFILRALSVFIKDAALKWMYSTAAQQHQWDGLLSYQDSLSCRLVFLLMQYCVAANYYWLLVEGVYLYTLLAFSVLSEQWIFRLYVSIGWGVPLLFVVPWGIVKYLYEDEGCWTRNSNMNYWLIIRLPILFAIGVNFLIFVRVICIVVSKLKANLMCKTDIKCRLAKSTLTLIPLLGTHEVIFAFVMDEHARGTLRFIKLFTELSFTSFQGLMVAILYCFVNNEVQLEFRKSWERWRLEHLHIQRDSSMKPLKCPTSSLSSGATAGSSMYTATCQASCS
Procedure, shortened: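 After near-confluent growth in DMEM with 10% FBS, cells were washed in Ca/Mg-free PBS, lifted with accutase and diluted to 400000 cells/ml in IBMX (2 mM)-containing HEPES-buffered HBSS with 0.1% BSA. Compounds were applied for 30 minutes at room temperature before homogeneous time-resolved fluorescence quantitation of cAMP.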

human GIP receptor = target: T2, human GIP receptor (Homo sapiens, UniProt P48546); assay: cAMP response (HTRF) of HEK-293 cells stably expressing human GIP receptor; type: cell-based; details: Table 7; cAMP formation; read-out: EC50 hGIP R
T2 construct: expressed in transfected cells
T2 sequence (P48546 22-466): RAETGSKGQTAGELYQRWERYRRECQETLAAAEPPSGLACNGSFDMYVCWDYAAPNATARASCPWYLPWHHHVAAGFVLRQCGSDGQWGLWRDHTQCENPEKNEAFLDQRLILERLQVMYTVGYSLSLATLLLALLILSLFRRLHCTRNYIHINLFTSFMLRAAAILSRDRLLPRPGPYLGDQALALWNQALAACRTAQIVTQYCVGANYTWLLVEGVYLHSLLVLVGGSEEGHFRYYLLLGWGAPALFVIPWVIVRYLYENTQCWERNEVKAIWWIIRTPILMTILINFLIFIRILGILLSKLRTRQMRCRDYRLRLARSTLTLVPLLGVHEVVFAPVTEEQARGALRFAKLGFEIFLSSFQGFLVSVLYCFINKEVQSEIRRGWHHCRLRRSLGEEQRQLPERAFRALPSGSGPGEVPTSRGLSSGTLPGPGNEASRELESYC
Experimental: cAMP content of cells was determined using a kit from Cisbio Corp. (cat. no. 62AM4PEC) based on HTRF (Homogenous Time Resolved Fluorescence). For preparation, cells were split into T175 culture flasks and grown overnight to near confluency in medium (DMEM/10% FBS). Medium was then removed and cells washed with PBS lacking calcium and magnesium, followed by proteinase treatment with accutase (Sigma-Aldrich cat. no. A6964). Detached cells were washed and resuspended in assay buffer (1×HBSS; 20 mM HEPES, 0.1% BSA, 2 mM IBMX) and cellular density determined. They were then diluted to 400000 cells/ml and 25 μl-aliquots dispensed into the wells of 96-well plates. For measurement, 25 μl of test compound in assay buffer was added to the wells, followed by incubation for 30 minutes at room temperature.

Row | SMILES | Stability (pH 4.5) [1] | Stability (pH 7.4) [1] | Cmax ([2]; in vivo) | half-life ([2]; in vivo) | increase of remaining gastric contents (female NMRI-mice [3]) | reduction of intestinal passage (female NMRI-mice [3]) | blood glucose compared to db/db control mice, 24 h profile [4] | solubility at 2 h ([5]; pH 4.5) | solubility at 2 h ([5]; pH 7.4) | reduction of feed intake after 22 hours (female NMRI-mice [6]) | EC50 (human GLP-1 receptor) | solubility at 2 h ([5]; buffer, pH 4.5) | solubility at 2 h ([5]; buffer, pH 7.4) | EC50 (human GIP receptor) | Cmax ([2]; plasma) | half-life ([2]; plasma)
1 | CCCCCCCCCCCCCCCC(=O)N[C@@H](CCC(=O)NCCCC[C@H](NC(=O)[C@H](CCC(N)=O)NC(=O)[C@@H](NC(=O)[C@H](CO)NC(=O)[C@H](CC(C)C)NC(=O)[C@H](CC(=O)O)NC(=O)[C@H](CO)NC(=O)[C@@H](NC(=O)[C@H](Cc1ccccc1)NC(=O)[C@@H](NC(=O)CNC(=O)[C@H](CCC(N)=O)NC(=O)C(C)(C)NC(=O)[C@@H](N)Cc1ccc(O)cc1)[C@@H](C)O)[C@@H](C)O)[C@@H](C)CC)C(=O)N[C@@H](CC(=O)O)C(=O)N[C@@H](CO)C(=O)N[C@@H](CCCNC(=N)N)C(=O)N[C@@H](C)C(=O)N[C@@H](C)C(=O)N[C@@H](CCC(N)=O)C(=O)N[C@@H](CC(=O)O)C(=O)N[C@@H](Cc1ccccc1)C(=O)N[C@H](C(=O)N[C@@H](CCC(=O)O)C(=O)N[C@@H](Cc1c[nH]c2ccccc12)C(=O)N[C@@H](CC(C)C)C(=O)N[C@@H](CCCCN)C(=O)N[C@@H](CC(N)=O)C(=O)NCC(=O)NCC(=O)N1CCC[C@H]1C(=O)N[C@@H](CO)C(=O)N[C@@H](CO)C(=O)NCC(=O)N[C@@H](C)C(=O)N1CCC[C@H]1C(=O)N1CCC[C@H]1C(=O)N1CCC[C@H]1C(=O)N[C@@H](CO)C(N)=O)[C@@H](C)CC)C(=O)O [SEQ ID NO: 13, Y-Aib-Q-G-T-F-T-S-D-L-S-I-Q-K(γE-x53)-DSRAAQDFIEWLKNGGPSSGAPPPS-NH2] (H-Y[Aib]QGTFTSDLSIQK([γGlu-Palmitoyl])DSRAAQDFIEWLKNGGPSSGAPPPS-NH2) | 86.8% | 95.9% | 3790 ng/mL | 3.1 h | 40% | 60% | significant decrease in blood glucose | 268 µg/mL (≈ 59.4 µM) | > 1000 µg/mL | 93% | – | – | – | – | – | –
2 | CCCCCCCCCCCCCCCCCC(=O)NCCCC(=O)NCCCC[C@H](NC(=O)[C@H](CCC(N)=O)NC(=O)[C@@H](NC(=O)[C@H](CO)NC(=O)[C@H](CC(C)C)NC(=O)[C@H](CC(=O)O)NC(=O)[C@H](CO)NC(=O)[C@@H](NC(=O)[C@H](Cc1ccccc1)NC(=O)[C@@H](NC(=O)CNC(=O)[C@H](CCC(=O)O)NC(=O)C(C)(C)NC(=O)[C@@H](N)Cc1ccc(O)cc1)[C@@H](C)O)[C@@H](C)O)[C@@H](C)CC)C(=O)N[C@@H](CCC(=O)O)C(=O)N[C@@H](CCCCN)C(=O)N[C@@H](CCCNC(=N)N)C(=O)N[C@@H](C)C(=O)N[C@@H](C)C(=O)NC(C)(C)C(=O)N[C@@H](CCC(=O)O)C(=O)N[C@@H](Cc1ccccc1)C(=O)N[C@H](C(=O)N[C@@H](CCC(=O)O)C(=O)N[C@@H](Cc1c[nH]c2ccccc12)C(=O)N[C@@H](CC(C)C)C(=O)N[C@@H](CCCCN)C(=O)N[C@@H](CC(N)=O)C(=O)N[C@H](C(=O)NCC(=O)N1CCC[C@H]1C(=O)N[C@@H](CO)C(=O)N[C@@H](CO)C(=O)NCC(=O)N[C@@H](C)C(=O)N1CCC[C@H]1C(=O)N1CCC[C@H]1C(=O)N1CCC[C@H]1C(=O)N[C@@H](CO)C(N)=O)[C@@H](C)O)[C@@H](C)CC [SEQ ID NO: 17, Y-Aib-E-G-T-F-T-S-D-L-S-I-Q-K(GABA-x70)-E-K-R-A-A-Aib-E-F-I-E-W-L-K-N-T-G-P-S-S-G-A-P-P-P-S-NH2] (H-Y[Aib]EGTFTSDLSIQK([GABA-Stearoyl])EKRAA[Aib]EFIEWLKNTGPSSGAPPPS-NH2) | 100.0% | 100.0% | – | – | – | – | – | – | – | – | 8.7 pM | 970 µg/mL (≈ 213 µM) | > 1000 µg/mL | 9.6 pM | – | –
3 | CCCCCCCCCCCCCCCC(=O)N[C@@H](CCC(=O)NCCCC[C@H](NC(=O)[C@H](CCC(N)=O)NC(=O)[C@@H](NC(=O)[C@H](CO)NC(=O)[C@H](CC(C)C)NC(=O)[C@H](CC(=O)O)NC(=O)[C@H](CO)NC(=O)[C@@H](NC(=O)[C@H](Cc1ccccc1)NC(=O)[C@@H](NC(=O)CNC(=O)[C@H](CCC(N)=O)NC(=O)C(C)(C)NC(=O)[C@@H](N)Cc1ccc(O)cc1)[C@@H](C)O)[C@@H](C)O)[C@@H](C)CC)C(=O)N[C@@H](CCC(=O)O)C(=O)N[C@@H](CO)C(=O)N[C@@H](CCCNC(=N)N)C(=O)N[C@@H](C)C(=O)N[C@@H](C)C(=O)N[C@@H](CCC(N)=O)C(=O)N[C@@H](CC(=O)O)C(=O)N[C@@H](Cc1ccccc1)C(=O)N[C@H](C(=O)N[C@@H](CCC(=O)O)C(=O)N[C@@H](Cc1c[nH]c2ccccc12)C(=O)N[C@@H](CC(C)C)C(=O)N[C@@H](CCCCN)C(=O)N[C@@H](C)C(=O)NCC(=O)NCC(=O)N1CCC[C@H]1C(=O)N[C@@H](CO)C(=O)N[C@@H](CO)C(=O)NCC(=O)N[C@@H](C)C(=O)N1CCC[C@H]1C(=O)N1CCC[C@H]1C(=O)N1CCC[C@H]1C(=O)N[C@@H](CO)C(N)=O)[C@@H](C)CC)C(=O)O [SEQ ID NO: 32, Y-Aib-Q-G-T-F-T-S-D-L-S-I-Q-K(γE-x53)-ESRAAQDFIEWLKAGGPSSGAPPPS-NH2] (H-Y[Aib]QGTFTSDLSIQK([γGlu-Palmitoyl])ESRAAQDFIEWLKAGGPSSGAPPPS-NH2) | – | – | – | – | – | – | – | – | – | – | 8.4 pM | – | – | 7.1 pM | 5520 ng/mL | 2.7 h
